Experimental findings from US20070276011A1, “Plasminogen Activator Inhibitor-1 Inhibitor” (priority 2003, published 2007) are described below.

In assay [1] the target is T1, recombinant human PAI-1 (Homo sapiens, UniProt P05121). Description: Inhibition of complex formation of PAI-1 and tPA (SDS-PAGE). It counts as biochemical. As to conditions: 100 μM concentration. On the procedure:
To a 2.5 μL solution obtained by diluting a DMSO solution of the test compound at 4-fold concentration of the test concentration with PBS(-), 5 μL of 150 nM recombinant human PAI-1 solution adjusted with a phosphate buffer (pH6.6, 0.05M Sodium Phosphate, 0.1 M NaCl, 1 mM EDTA) was added, and reacted for 5 minutes at 37° C. […] of 600 nM recombinant human one-chain tPA solution adjusted with PBS(-) was added, and further reacted for 5 minutes at 37° C. 10 μL of stop buffer (1.25 mM Tris-HCl pH6.8, 4% SDS, 0.01% BPB, 14% Glycerol) was added, heated for 30 seconds at 100° C., and then the total amount of 20 μL was applied to 10% SDS-PAGE gel electrophoresis. When the test compound was not added as being a control, a band of PAI-1-tPA complex was observed.

Assay [2] deals with T1, recombinant human PAI-1. The experiment in a line: PAI-1 inhibitory activity, Test Method A (tPA fluorogenic substrate, Tris buffer pH8.0, 37 C). In kind it is biochemical. Conditions: for IC50: 50% inhibitory concentration of PAI-1 activity, according to the aforementioned method; for Inhibitory Ratio at 25 μM (%): Test Method A.

The structures appear in SMILES notation. Some results are limits rather than exact numbers.

T1 sequence (P05121 24-402): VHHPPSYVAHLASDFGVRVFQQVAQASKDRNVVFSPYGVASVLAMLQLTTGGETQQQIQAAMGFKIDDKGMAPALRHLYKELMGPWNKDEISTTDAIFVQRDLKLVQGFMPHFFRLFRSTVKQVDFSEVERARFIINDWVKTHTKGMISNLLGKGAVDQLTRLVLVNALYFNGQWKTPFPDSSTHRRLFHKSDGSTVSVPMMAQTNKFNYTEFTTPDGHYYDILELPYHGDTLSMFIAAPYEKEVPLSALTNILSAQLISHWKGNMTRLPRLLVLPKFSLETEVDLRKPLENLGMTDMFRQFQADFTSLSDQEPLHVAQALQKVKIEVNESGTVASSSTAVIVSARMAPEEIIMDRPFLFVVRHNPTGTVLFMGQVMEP

Regarding `O=C1SC(=Cc2cccc(O)c2O)C(=O)N1Cc1cccc(Cl)c1Cl` [compound 18, 5-(2,3-Dihydroxybenzylidene)-3-(2,3-dichlorobenzyl)thiazolidine-2,4-dione], in assay [1], the “inhibition of the complex formation of PAI-1 and tPA observed with SDS-PAGE” value (shortened to “inhibition”) was “completely inhibited”. Also, the IC50 in assay [2] was determined as 380 nM. Further, in assay [2] (test compound 25 μM), the “Inhibitory Ratio at 25 μM (%)” value is given as over 99%.
For the molecule `O=C1SC(=Cc2cccc(O)c2O)C(=O)N1Cc1ccc(Cl)cc1Cl` [compound 22, 5-(2,3-Dihydroxybenzylidene)-3-(2,4-dichlorobenzyl)thiazolidine-2,4-dione], the “inhibition” value in assay [1] is “completely inhibited”. Further, the concentration for half-maximal inhibition (IC50) in assay [2] came to 440 nM. The “Inhibitory Ratio at 25 μM (%)” value in assay [2] (test compound 25 μM) is reported as over 99%.
For `O=C1SC(=Cc2cccc(O)c2O)C(=O)N1Cc1ccc(Br)cc1` [compound 36, 5-(2,3-Dihydroxybenzylidene)-3-(4-bromobenzyl)thiazolidine-2,4-dione], the “inhibition” value in assay [1] was “completely inhibited”. Moreover, the half-maximal inhibitory concentration (IC50) in assay [2] was determined as 450 nM. The “Inhibitory Ratio at 25 μM (%)” value in assay [2] (test compound 25 μM) was over 99%.
The corresponding values for `O=C1SC(=Cc2cccc(O)c2O)C(=O)N1Cc1ccc(C(F)(F)F)cc1` [compound 43, 5-(2,3-Dihydroxybenzylidene)-3-[4-(trifluoromethyl)benzyl]thiazolidine-2,4-dione] are “completely inhibited”, 360 nM and over 99%.
The corresponding values for `O=C1SC(=Cc2cccc(O)c2O)C(=O)N1Cc1ccc(C=Cc2ccccc2)cc1` [compound 56, 5-(2,3-Dihydroxybenzylidene)-3-(4-styrylbenzyl)thiazolidine-2,4-dione] are “completely inhibited”, 140 nM and over 99%.
On to `O=C1C(=Cc2ccc(O)c(O)c2)SC(=S)N1Cc1ccc(Cl)c(Cl)c1` [compound 81, 5-(3,4-Dihydroxybenzylidene)-3-(3,4-dichlorobenzyl)rhodanine], for which the “inhibition” value in assay [1] is recorded as “completely inhibited”. In addition, the IC50 in assay [2] is 230 nM. For the same molecule, in assay [2] (test compound 25 μM), the “Inhibitory Ratio at 25 μM (%)” value was over 99%.
The corresponding values for `O=C1C(=Cc2cc(O)c(O)cc2O)C(c2ccccc2)=NN1c1cc(Cl)cc(Cl)c1` [compound 136] are “completely inhibited”, 390 nM and over 99%.
On the same counts, the results for `CC(C)C1=NN(c2ccc(Cl)c(Cl)c2)C(=O)C1=Cc1cc(O)c(O)cc1O` [compound 141, 4-(2,4,5-trihydroxybenzylidene)-1-(3,4-dichlorophenyl)-3-isopropyl-2-pyrazolin-5-one] are “completely inhibited”, 240 nM and over 99%.
As for `CCOC1=NN(c2ccc([N+](=O)[O-])cc2)C(=O)C1=Cc1cc(O)c(O)cc1Br` [compound 557, 4-(2-Bromo-4,5-dihydroxybenzylidene)-1-(4-nitrophenyl)-3-ethoxy-2-pyrazolin-5-one], the “Inhibitory Ratio at 25 μM (%)” value in assay [2] (25 μM test compound) is 82%.
Turning to `CC(C)C1=NN(c2ccc(Cl)c(Cl)c2)C(=O)C1=Cc1cc(O)ccc1[N+](=O)[O-]` [compound 558], in assay [2] (25 μM test compound), the “Inhibitory Ratio at 25 μM (%)” value is reported as over 99%.
Regarding `COc1cc(C=C2C(=O)N(c3ccc(Cl)c(Cl)c3)N=C2C(C)C)cc(C(=O)O)c1O` [compound 559], the “Inhibitory Ratio at 25 μM (%)” value in assay [2] (25 μM test compound) is given as over 99%.
`CCN(CC)c1ccc(O)c(C=C2C(=O)N(c3ccc(Cl)c(Cl)c3)N=C2C(C)C)c1` [compound 560]: the “Inhibitory Ratio at 25 μM (%)” value in assay [2] (25 μM test compound) is listed as over 99%.
Consider `COc1cc(C=C2C(=O)N(c3ccc(Cl)c(Cl)c3)N=C2C(C)C)cc([N+](=O)[O-])c1O` [compound 561], for which the “Inhibitory Ratio at 25 μM (%)” value in assay [2] (25 μM test compound) came to 91%.
